A word on the IC50: it is the point on the concentration scale where inhibition reaches its midpoint. Low readings indicate inhibition by little substance, high ones a need for much substance. Broadly, the half-life is how long it takes for the measured level to halve. A word on the AUC: it is concentration integrated over time. Higher therefore signals more exposure.

1 molecule from ChEMBL document CHEMBL5154929, “Optimization of the Natural Product Calothrixin A to Discover Novel Dual Topoisomerase I and II Inhibitors with Improved Anticancer Activity” (J Med Chem, 2022) can be followed below.

Structures are written as SMILES. Active and inactive are the calls of the source. The rule behind the calls is not given here.

Series [1] concerns A-375. Briefly: Induction of apoptosis in human A-375 cells assessed as increase in expression level of C-caspase-9 measured after 24 hrs by Western blotting analysis. The conditions noted are these: dose 40-120 nM, DDE = dose-dependent effect. Type of series: functional, cell-based. In general terms: A western blot detects proteins with antibodies after separation by electrophoresis.

Series [2] can be described thus: Cytotoxicity against human HEK293T cells measured after 72 hrs by MTT assay. Type of series: toxicity, cell-based, HEK-293T. For orientation: Tetrazolium assays rely on reduction of a dye to a coloured formazan, in cell work by metabolically active cells.
Series [3] in a line: Selectivity index, ratio of IC50 for human HEK293T cells to IC50 for human A-375 cells. Type of series: toxicity. The conditions noted are these: HEK293T cells and A-375 cells, read-out: Ratio IC50.
The nature of series [4]: In vivo acute toxicity in Balb/C mouse assessed as effect on body weight at 50 mg/kg, iv administered once per 2 days for 7 days measured every other day. Type of series: organism-based. The note with it: 168 h, time 7 day.
The nature of series [5]: Microsomal stability in mouse liver microsomes assessed as half life measured at 2 ug/ml upto 60 mins in presence of NADPH generating system and UGT incubation system by phase II metabolic stability kit method. The conditions noted are these: dose 2 µg/ml. Type of series: ADME, Microsome.
Series [6] in a line: In vivo acute toxicity in Balb/C mouse assessed as pathological damage in liver at 50 mg/kg, iv administered once per 2 days for 7 days measured 24 hrs after last dose by H and E staining method. Type of series: organism-based. The note with it: 168 h, time 7 day.
Series [7] has as its target DNA topoisomerase 2-alpha (Homo sapiens) (UniProt P11388). Briefly: Inhibition of human DNA topoisomerase II-alpha relaxation activity at 100 uM incubated for 30 mins by chemiDoc system.
The test system of series [8] is A-375. Briefly: In vivo antitumor activity against human A-375 cells xenografted in BALB/c nude mouse assessed as decrease in tumor volume treated after 7 days of tumor implantation on right flank subcutaneously at 10 to 20 mg/kg, iv administered once per 2 days for 14 days measured once every two days. Type of series: functional, organism-based. The conditions noted are these: dose 10-20 mg/kg, time 14.0 day. Background: In xenograft studies the graft and the host belong to different species.

Series [9] has as its system A-375. Briefly: Induction of cell cycle arrest in human A-375 cells assessed as accumulation of cells at G2 phase at 40 nM incubated for 24 hrs by PI based flow cytometric analysis (RVB = 20.34%). Type of series: functional.
In series [10] the test system is A-375. Briefly: Inhibition of colony formation in human A-375 cells at 20 to 40 nM incubated for 48 hrs by crystal violet staining method. Type of series: functional, cell-based. The conditions noted are these: dose 20-40 nM.
The nature of series [11]: AUC in Kunming mouse plasma at 10 mg/kg, iv administered as single dose measured after 5 to 360 mins by HPLC analysis. Set-up: time upper 360 min, time lower 5 min, dose 10 mg/kg, route iv. Type of series: ADME, organism-based.
The subject of a further series is HCT-116. Briefly: Cytotoxicity against human HCT-116 cells expressing high level of topoisomerase I/II measured after 72 hrs by MTT assay. Type of series: functional, cell-based. The conditions noted are these: HCT-116, 72 h.
Series [12] is described as follows: Toxicity in BALB/c nude mouse xenografted with human A-375 cells assessed as body weight loss treated after 7 days of tumor implantation on right flank subcutaneously at 10 to 20 mg/kg, iv administered once per 2 days for 14 days measured once every two days. Type of series: organism-based. The note with it: in vivo, 336 h, dose 10-20 mg/kg, time 14 day.

Sequence of DNA topoisomerase 2-alpha (Homo sapiens) (P11388 whole entry): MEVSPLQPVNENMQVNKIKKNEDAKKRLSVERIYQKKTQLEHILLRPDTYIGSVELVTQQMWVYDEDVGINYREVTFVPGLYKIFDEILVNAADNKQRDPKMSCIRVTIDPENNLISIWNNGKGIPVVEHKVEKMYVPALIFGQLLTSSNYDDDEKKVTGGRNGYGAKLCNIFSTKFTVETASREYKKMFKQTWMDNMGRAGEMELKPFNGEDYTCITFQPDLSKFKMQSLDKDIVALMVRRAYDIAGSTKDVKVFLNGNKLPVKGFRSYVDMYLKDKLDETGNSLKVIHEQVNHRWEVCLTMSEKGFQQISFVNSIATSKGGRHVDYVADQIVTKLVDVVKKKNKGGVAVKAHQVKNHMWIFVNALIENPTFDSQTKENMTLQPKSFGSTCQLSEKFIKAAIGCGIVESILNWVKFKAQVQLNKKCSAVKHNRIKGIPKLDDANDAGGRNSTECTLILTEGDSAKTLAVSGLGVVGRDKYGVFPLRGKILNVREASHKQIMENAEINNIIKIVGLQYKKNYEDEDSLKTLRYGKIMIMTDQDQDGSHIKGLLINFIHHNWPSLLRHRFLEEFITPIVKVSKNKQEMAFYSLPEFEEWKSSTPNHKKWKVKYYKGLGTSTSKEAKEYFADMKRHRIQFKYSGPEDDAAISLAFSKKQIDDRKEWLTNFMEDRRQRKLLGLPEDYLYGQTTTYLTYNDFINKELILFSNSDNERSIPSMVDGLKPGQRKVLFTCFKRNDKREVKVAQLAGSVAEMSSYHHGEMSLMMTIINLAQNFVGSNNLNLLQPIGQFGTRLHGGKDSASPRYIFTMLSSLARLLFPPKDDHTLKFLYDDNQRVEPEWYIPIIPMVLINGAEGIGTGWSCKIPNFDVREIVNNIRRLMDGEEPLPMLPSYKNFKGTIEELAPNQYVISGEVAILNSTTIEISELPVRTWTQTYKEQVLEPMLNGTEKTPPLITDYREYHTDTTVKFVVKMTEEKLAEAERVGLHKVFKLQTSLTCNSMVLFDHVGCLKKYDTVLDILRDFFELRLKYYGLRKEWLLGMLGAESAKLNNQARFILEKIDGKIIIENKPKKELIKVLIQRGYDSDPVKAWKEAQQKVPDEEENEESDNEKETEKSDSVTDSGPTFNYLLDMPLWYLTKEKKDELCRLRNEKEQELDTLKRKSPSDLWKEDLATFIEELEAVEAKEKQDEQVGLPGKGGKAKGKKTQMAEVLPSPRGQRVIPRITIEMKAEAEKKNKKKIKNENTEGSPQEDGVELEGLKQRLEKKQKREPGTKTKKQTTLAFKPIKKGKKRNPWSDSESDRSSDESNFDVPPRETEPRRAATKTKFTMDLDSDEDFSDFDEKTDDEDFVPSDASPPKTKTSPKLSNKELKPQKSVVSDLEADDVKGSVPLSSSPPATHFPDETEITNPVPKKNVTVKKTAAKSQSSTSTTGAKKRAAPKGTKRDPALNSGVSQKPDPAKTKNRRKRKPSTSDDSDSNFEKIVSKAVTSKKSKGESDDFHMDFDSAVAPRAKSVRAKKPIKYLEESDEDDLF

With `O=C1c2c[n+]([O-])c3ccccc3c2C(=O)c2c1c1ccccc1n2Cc1cn([C@@H]2C[C@H](O)[C@@H](CO)O2)nn1`, the Activity entry in the series with A-375 [1] is “Dde”; in [4], “Non-Toxic”; in [6], “Non-Toxic”; with A-375 [9], 27.87%; in [12], “Non-Toxic”. Further, the IC50 at 72 h in series [2] was 820 nM. The selectivity ratio in series [3] is 40. In [5], the half-life at 2 ug/ml was determined as 40 min. Moreover, the inhibition result (in series [7]; in the series on A-375 [10]) was “Active” throughout. The outcome with A-375 [8] was Active. Moreover, in [11], the AUC was 48000 ng·h/mL. The molecule further returned an IC50 in the series with HCT-116 of 50 nM.
